# Test results from US20250011792A1, “IRAP INHIBITORS FOR USE IN THE TREATMENT OF INFLAMMATORY DISEASES” (INSTITUT NATIONAL DE LA SANTÉ ET DE LA RECHERCHE MÉDICALE, priority 2021, published 2025).
# Legend:
# [1] = system: VAMP3; test: Intracellular flow cytometry staining of VAMP3 expression after HFI-419 treatment; type: cell-based, mouse; details: starting from 24 h of treatment, data not shown
# Protocol: (§1) For TNF-α surface staining, PCMCs were stimulated with 1 μM ionomycin/10 nM PMA or 100 ng/ml LPS at 37° C. for 4 h in the presence of TAPI-1, washed with ice-cold PBS, and incubated at 4° C. with Fcblock (Miltenyi) followed by fluorochrome-conjugated CD117, FcεRI and TNF-α antibodies diluted in PBS-1% BSA. Intracellular staining of cytokines, IRAP and VAMP3 was performed using the BD intracellular staining kit and suitable species-specific fluorescent secondary antibodies (Life technologies).
# (§2) Vehicle or inhibitor at a dose of 1 μmol/kg was administered intravenously at 24 h and 15 min prior to the ear challenge. […] We therefore hypothesized that in addition to blocking its catalytic activity, HI-419 may also affect the stability of IRAP.
# [2] = target: T1, IRAP (Mus musculus, UniProt Q8C129); test: Intracellular flow cytometry staining of IRAP expression after HFI-419 treatment; type: cell-based; details: starting from 24 h of treatment, data not shown
# T1 construct: endogenous in cells; host or cells: primary mouse mast cells (BMMC / peritoneal cell-derived mast cells) from wt mice
# T1 sequence (Q8C129 1-1025): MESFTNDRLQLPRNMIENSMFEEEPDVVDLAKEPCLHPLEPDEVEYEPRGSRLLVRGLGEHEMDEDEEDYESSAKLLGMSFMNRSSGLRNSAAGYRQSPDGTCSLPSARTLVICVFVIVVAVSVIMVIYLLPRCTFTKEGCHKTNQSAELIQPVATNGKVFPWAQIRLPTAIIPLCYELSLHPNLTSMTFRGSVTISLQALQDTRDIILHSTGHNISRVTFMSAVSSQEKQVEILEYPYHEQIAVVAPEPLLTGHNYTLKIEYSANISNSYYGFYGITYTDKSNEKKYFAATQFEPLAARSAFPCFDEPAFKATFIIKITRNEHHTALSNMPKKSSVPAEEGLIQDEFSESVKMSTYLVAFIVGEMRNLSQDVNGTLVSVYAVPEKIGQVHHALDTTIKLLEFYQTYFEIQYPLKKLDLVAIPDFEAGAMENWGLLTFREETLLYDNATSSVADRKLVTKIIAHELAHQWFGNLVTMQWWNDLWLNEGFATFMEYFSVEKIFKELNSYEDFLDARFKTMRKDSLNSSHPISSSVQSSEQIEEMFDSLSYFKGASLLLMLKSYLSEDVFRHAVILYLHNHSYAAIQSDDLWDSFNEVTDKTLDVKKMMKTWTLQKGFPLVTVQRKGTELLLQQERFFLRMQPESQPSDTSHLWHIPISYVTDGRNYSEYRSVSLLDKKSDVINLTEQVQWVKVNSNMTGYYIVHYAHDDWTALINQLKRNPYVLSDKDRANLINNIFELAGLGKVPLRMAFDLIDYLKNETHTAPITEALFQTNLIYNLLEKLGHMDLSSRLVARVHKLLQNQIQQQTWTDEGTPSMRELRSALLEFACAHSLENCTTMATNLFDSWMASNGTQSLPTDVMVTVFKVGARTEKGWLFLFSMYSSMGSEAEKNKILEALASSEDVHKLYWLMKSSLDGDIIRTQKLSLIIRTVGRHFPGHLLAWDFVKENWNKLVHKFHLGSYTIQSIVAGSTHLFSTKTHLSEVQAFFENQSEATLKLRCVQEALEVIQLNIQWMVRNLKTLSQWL
# Protocol: as §1, §2
# [3] = system: IRAP wt mice; test: Mouse ear challenge with arachidonic acid, cytokines quantified in ear tissue homogenates; type: in vivo; details: 1 μmol/kg intravenously at 24 h and 15 min prior to ear challenge; ear tissue homogenates normalized to total protein; FIG. 3
# Protocol: IRAP wt mice were injected i.v. with 6 μg HI-419 or vehicle 24 h and 15 min prior to ear challenge. Cytokine concentrations were quantified in ear tissue homogenates and normalized to total protein concentration.
# Twenty microliters arachidonic acid (AA) (30 mg/ml in acetone) were applied to the inner and outer surface of one mouse ear, whereas the other ear was left untreated.
# One hour after AA application, mice were sacrificed and ears were collected. The ear biopsies were dissociated using the pre-set “Protein” protocol of gentleMACS™ Octo Dissociator (Milteniy Biotec) in 800 μl ice-cold homogenization buffer [(PBS containing 0.4M NaCl, 0.05% Tween-20, 10 mM EDTA and protease inhibitor cocktail complete (Roche)]. The homogenates were cleared by 10 min centrifugation at 5000×g, and the total protein concentration determined in a BCA assay. Histamine or cytokines in the supernatant were quantified as described below.
# (§3) Supernatants were collected and histamine was quantified using the Histamine Dynamic HTRF kit (Cisbio). TNF-α, IL-6, or IL-10 were quantified using specific cytokine ELISA kits. Kits were used according to the manufacturer's instructions.
# as §2
# [4] = system: mast cells; test: Cytokine secretion by mast cells treated with IRAP inhibitors for 24 h before ionomycin/PMA activation; type: cell-based, mouse; details: mast cells treated for 24 h prior to ionomycin/PMA activation; data not shown
# Protocol: PCMCs were stimulated with 1 uM ionomycin/10 nM PMA or 100 ng/ml LPS at 37° C. for 6 h for cytokine secretion or with ionomycin/PMA or 10 ug/ml 48/80 for 30 min for histamine measurement.
# as §3
# Considering the aminopeptidase function of TRAP, we wondered if its catalytic activity was required for efficient cytokine secretion. To test this, we treated mast cells with the IRAP inhibitors HFI-419, 4u 55 and 22b (a gift from E. Stratikos) for 24 h prior to ionomycin/PMA activation.
# [5] = system: wt cells (mast cells); test: TNF-α secretion in the presence of endocytosis inhibitors; type: cell-based, mouse; details: wt versus IRAPko cells; data not shown
# [6] = system: IRAP; test: Subcellular localization of IRAP under endocytosis inhibition after LPS activation; type: cell-based, mouse; details: after three hours of LPS activation; data not shown
SMILES,expression level of VAMP3 [1],expression level of IRAP [2],expression level of IRAP ([2]; listed as HI-419),IL-6 secretion in challenged ear versus vehicle-treated animals [3],IL-10 secretion in challenged ear versus vehicle-treated animals [3],TNF-α secretion in challenged ear versus vehicle-treated animals [3],inhibition of IRAP-dependent cytokine secretion in vitro [4],TNF-α secretion [5],IRAP subcellular localization (re-internalization) [6]
"CCOC(=O)C1=C(NC(C)=O)Oc2cc(O)ccc2C1c1cccnc1 (racemic) [HFI-419, (±)-Ethyl-2-acetamido-7-hydroxy-4-(pyridin-3-yl)-4H-chromene-3-carboxylate]",decreased expression levels,decreased expression levels,reduced,significantly less,unaffected,significantly less,significant inhibition,–,–
CS(=O)(=O)N1CCN(Cc2cc3nc(-c4cccc5[nH]ncc45)nc(N4CCOCC4)c3s2)CC1 [GDC-0941],–,–,–,–,–,–,–,reduce TNF-α secretion specifically in wt cells,–
O=C(N/N=C/c1ccc(O)c(O)c1)c1cc2ccccc2cc1O [dynasore],–,–,–,–,–,–,–,reduce TNF-α secretion specifically in wt cells,strong plasma membrane staining
